From PMC3726442 (PLoS ONE, 2013)

Key:
estrogen receptor = settings: cited from earlier work
[1] = Plasma concentrations of tamoxifen and its metabolites in breast cancer patients on tamoxifen, by HPLC-tandem mass spectrometry
Excerpt: One hundred and thirty five Caucasian patients of Spanish descent recently diagnosed with BC were recruited from the center Fundación Tejerina-Centro de Patología de la Mama (Madrid). Premenopausal and postmenopausal women were enrolled when started on TAM as standard adjuvant therapy after undergoing primary surgery, radiation and adjuvant chemotherapy. Patients were excluded if they had started TAM therapy simultaneously with either adjuvant chemotherapy or adjuvant radiation therapy (or both) or if they were undergoing other adjuvant endocrine therapies. Patients who were pregnant or breast-feeding were also excluded from the study. […] Blood samples were collected within 3 to 60 months of initiating TAM treatment.
Venous blood was collected from all 135 subjects before taking their daily 20- mg dose of TAM. Ten milliliters of heparin plasma were separated by centrifugation and immediately stored at −20°C until analysis. In addition, one milliliter of an EDTA blood sample was taken for subsequent DNA extraction and genotyping. DNA was isolated from peripheral leukocytes using a QIAamp DNA Blood Mini Kit® (Qiagen, Madrid, Spain) according to the manufacturer’s instructions. The DNA concentration was determined and adjusted to 2–20 ng/ µL.
TAM and its metabolites were separated and quantified by high-pressure liquid chromatography-tandem mass spectrometry using an Agilent HPLC 1200 system. HPLC experiments were performed using a binary pump G1312A, a G1316A column oven, G1379B degasser and an automatic injector H-ALS G1367B. Mobile phase A and phase B consisted of 0.1% formic acid in water and acetonitrile, respectively. Mobile phases A and B were pumped through a ZORBAX Eclipse XDB-C18 column (150 mm×2.1 mm I.D., 3.5 µm, Agilent USA) at a flow rate of 0.2 mL/min using the gradient shown in Table 1. Separation was conducted at 30°C. 15- µL aliquots were injected and the autosampler needle was rinsed in acetonitrile/water solution (1∶1). The total run time was 20 min. During the first 4.0 and last 2.0 min, the eluate was removed using a divert valve to avoid endogenous compounds entering the mass spectrometer.
As a detector, we used an A 6410 Triple Quadrupole mass spectrometer (Agilent Technologies, USA) equipped with a heated electrospray ionization source (Thermo Fisher Scientific, Waltham, MA, USA) operating in positive ion mode. For quantification, multiple reaction monitoring (MRM) chromatograms were acquired using Mass Hunter software version B.01.04 (Agilent Technologies, USA). Positive ions were created at atmospheric pressure. Quadrupoles operated at unit resolution (0.7 Da).
A 300- µL volume of 1% formic acid in acetonitrile containing internal standards was added to a 100- µL serum aliquot. After vortexing and centrifugation, the clear supernatant was transferred to a HybridSPE column (Supelco) and the eluents stored at 2–8°C until analysis. Samples were analyzed in triplicate.
Descriptive statistics were calculated using standard methods. Metabolic ratios were calculated as the concentration of substrate/concentration of metabolite. The non-normal distribution of data was confirmed by the Kolmogorov-Smirnov test. Levels of TAM, metabolites and ratios between genotype groups were compared using Wilcoxon-Mann-Whitney or Kruskal-Wallis tests. All statistical tests (two-sided) were performed using SPSS software (version 18.0 SPSS, Chicago, IL). Significance was set at a p<0.05.

[2] = cited from earlier work
[3] = all samples analyzed, n = 125, before daily 20 mg TAM dose

- endoxifen levels in wt/wt CYP2D6 relative to v/v CYP2D6 patients ([1]; CYP2D6 genotype subgroups, Figure 1): over two-fold
- mean plasma concentration (±SD) [1, 3]: 24.75 ± 19.37 ng/mL
- median plasma concentration [1, 3]: 19.11 ng/mL
- mean concentration relative to the 4OH-TAM mean concentration ([1]; all samples, n = 125): almost three times
- plasma concentration, mean ±SD ([1]; genotype CYP2D6 I/I, n = 1): 9.53 ± 0.00 ng/mL
- plasma concentration, median ([1]; genotype CYP2D6 I/I, n = 1): 9.53 ng/mL
- plasma concentration, range ([1]; genotype CYP2D6 I/I, n = 1): (9.53–9.53) ng/mL
- plasma concentration, mean ±SD ([1]; genotype CYP2D6 I/P, n = 8): 12.01 ± 5.84 ng/mL
- plasma concentration, median ([1]; genotype CYP2D6 I/P, n = 8): 10.00 ng/mL
- plasma concentration, range ([1]; genotype CYP2D6 I/P, n = 8): (4.46–21.02) ng/mL
- plasma concentration, mean ±SD ([1]; genotype CYP2D6 P/P, n = 2): 8.71 ± 6.41 ng/mL
- plasma concentration, median ([1]; genotype CYP2D6 P/P, n = 2): 8.71 ng/mL
- plasma concentration, range ([1]; genotype CYP2D6 P/P, n = 2): (4.18–13.24) ng/mL
- plasma concentration, mean ±SD ([1]; genotype CYP2D6 wt/I, n = 4): 26.87 ± 17.31 ng/mL
- plasma concentration, median ([1]; genotype CYP2D6 wt/I, n = 4): 20.64 ng/mL
- plasma concentration, range ([1]; genotype CYP2D6 wt/I, n = 4): (14.01–52.20) ng/mL
- plasma concentration, mean ±SD ([1]; genotype CYP2D6 wt/P, n = 26): 23.76 ± 25.21 ng/mL
- plasma concentration, median ([1]; genotype CYP2D6 wt/P, n = 26): 14.57 ng/mL
- plasma concentration, range ([1]; genotype CYP2D6 wt/P, n = 26): (5.01–107.10) ng/mL
- plasma concentration, mean ±SD ([1]; genotype CYP2D6 wt/wt, n = 78): 26.47 ± 17.89 ng/mL
- plasma concentration, median ([1]; genotype CYP2D6 wt/wt, n = 78): 21.21 ng/mL
- plasma concentration, range ([1]; genotype CYP2D6 wt/wt, n = 78): (4.03–95.87) ng/mL
- plasma concentration, mean ±SD ([1]; genotype CYP2D6 wtxN/P, n = 2): 36.09 ± 32.08 ng/mL
- plasma concentration, median ([1]; genotype CYP2D6 wtxN/P, n = 2): 36.09 ng/mL
- plasma concentration, range ([1]; genotype CYP2D6 wtxN/P, n = 2): (13.40–58.77) ng/mL
- plasma concentration, mean ±SD ([1]; genotype CYP3A4 wt/*1B, n = 3): 22.31 ± 10.86 ng/mL
- plasma concentration, median ([1]; genotype CYP3A4 wt/*1B, n = 3): 26.69 ng/mL
- plasma concentration, range ([1]; genotype CYP3A4 wt/*1B, n = 3): (9.95–30.30) ng/mL
- plasma concentration, mean ±SD ([1]; genotype CYP3A4 wt/*3, n = 2): 49.15 ± 21.86 ng/mL
- plasma concentration, median ([1]; genotype CYP3A4 wt/*3, n = 2): 49.15 ng/mL
- plasma concentration, range ([1]; genotype CYP3A4 wt/*3, n = 2): (33.69–64.61) ng/mL
- plasma concentration, mean ±SD ([1]; genotype CYP3A4 wt/*17, n = 9): 19.86 ± 24.88 ng/mL
- plasma concentration, median ([1]; genotype CYP3A4 wt/*17, n = 9): 11.94 ng/mL
- plasma concentration, range ([1]; genotype CYP3A4 wt/*17, n = 9): (4.46–84.57) ng/mL
- plasma concentration, mean ±SD ([1]; genotype CYP3A4 wt/wt, n = 107): 24.80 ± 19.03 ng/mL
- plasma concentration, median ([1]; genotype CYP3A4 wt/wt, n = 107): 19.12 ng/mL
- plasma concentration, range ([1]; genotype CYP3A4 wt/wt, n = 107): (4.03–107.10) ng/mL
- plasma concentration, mean ±SD ([1]; genotype CYP3A5 *3/*3, n = 117): 25.10 ± 19.66 ng/mL
- plasma concentration, median ([1]; genotype CYP3A5 *3/*3, n = 117): 19.12 ng/mL
- plasma concentration, range ([1]; genotype CYP3A5 *3/*3, n = 117): (4.03–107.10) ng/mL
- plasma concentration, mean ±SD ([1]; genotype CYP3A5 wt/*3, n = 6): 14.14 ± 7.56 ng/mL
- plasma concentration, median ([1]; genotype CYP3A5 wt/*3, n = 6): 13.61 ng/mL
- plasma concentration, range ([1]; genotype CYP3A5 wt/*3, n = 6): (5.40–23.01) ng/mL
- plasma concentration, mean ±SD ([1]; genotype SULT1A1 *2/*2, n = 15): 28.68 ± 24.18 ng/mL
- plasma concentration, median ([1]; genotype SULT1A1 *2/*2, n = 15): 19.82 ng/mL
- plasma concentration, range ([1]; genotype SULT1A1 *2/*2, n = 15): (4.57–95.87) ng/mL
- plasma concentration, mean ±SD ([1]; genotype SULT1A1 wt/*2, n = 46): 26.59 ± 19.97 ng/mL
- plasma concentration, median ([1]; genotype SULT1A1 wt/*2, n = 46): 22.58 ng/mL
- plasma concentration, range ([1]; genotype SULT1A1 wt/*2, n = 46): (4.18–107.10) ng/mL
- plasma concentration, mean ±SD ([1]; genotype SULT1A1 wt/wt, n = 60): 22.43 ± 17.79 ng/mL
- plasma concentration, median ([1]; genotype SULT1A1 wt/wt, n = 60): 17.47 ng/mL
- plasma concentration, range ([1]; genotype SULT1A1 wt/wt, n = 60): (4.03–89.98) ng/mL
- plasma concentration, mean ±SD ([1]; genotype SULT1A2 *2/*2, n = 16): 26.59 ± 23.20 ng/mL
- plasma concentration, median ([1]; genotype SULT1A2 *2/*2, n = 16): 20.76 ng/mL
- plasma concentration, range ([1]; genotype SULT1A2 *2/*2, n = 16): (4.18–95.87) ng/mL
- plasma concentration, mean ±SD ([1]; genotype SULT1A2 *2/*3, n = 13): 34.61 ± 20.35 ng/mL
- plasma concentration, median ([1]; genotype SULT1A2 *2/*3, n = 13): 32.02 ng/mL
- plasma concentration, range ([1]; genotype SULT1A2 *2/*3, n = 13): (8.94–74.06) ng/mL
- plasma concentration, mean ±SD ([1]; genotype SULT1A2 *3/*3, n = 5): 27.34 ± 21.30 ng/mL
- plasma concentration, median ([1]; genotype SULT1A2 *3/*3, n = 5): 21.02 ng/mL
- plasma concentration, range ([1]; genotype SULT1A2 *3/*3, n = 5): (12.13–64.61) ng/mL
- plasma concentration, mean ±SD ([1]; genotype SULT1A2 wt/*2, n = 33): 28.84 ± 23.78 ng/mL
- plasma concentration, median ([1]; genotype SULT1A2 wt/*2, n = 33): 23.22 ng/mL
- plasma concentration, range ([1]; genotype SULT1A2 wt/*2, n = 33): (4.46–107.10) ng/mL
- plasma concentration, mean ±SD ([1]; genotype SULT1A2 wt/*3, n = 16): 23.99 ± 15.32 ng/mL
- plasma concentration, median ([1]; genotype SULT1A2 wt/*3, n = 16): 19.02 ng/mL
- plasma concentration, range ([1]; genotype SULT1A2 wt/*3, n = 16): (7.80–51.61) ng/mL
- plasma concentration, mean ±SD ([1]; genotype SULT1A2 wt/wt, n = 38): 17.21 ± 11.79 ng/mL
- plasma concentration, median ([1]; genotype SULT1A2 wt/wt, n = 38): 14.78 ng/mL
- plasma concentration, range ([1]; genotype SULT1A2 wt/wt, n = 38): (4.03–58.77) ng/mL
- plasma concentration, mean ±SD ([1]; genotype SULT1E1 *2/*2, n = 5): 16.05 ± 8.07 ng/mL
- plasma concentration, median ([1]; genotype SULT1E1 *2/*2, n = 5): 20.60 ng/mL
- plasma concentration, range ([1]; genotype SULT1E1 *2/*2, n = 5): (6.74–23.01) ng/mL
- plasma concentration, mean ±SD ([1]; genotype SULT1E1 wt/*2, n = 28): 24.30 ± 20.87 ng/mL
- plasma concentration, median ([1]; genotype SULT1E1 wt/*2, n = 28): 18.04 ng/mL
- plasma concentration, range ([1]; genotype SULT1E1 wt/*2, n = 28): (4.18–95.87) ng/mL
- plasma concentration, mean ±SD ([1]; genotype SULT1E1 wt/wt, n = 88): 25.41 ± 19.51 ng/mL
- plasma concentration, median ([1]; genotype SULT1E1 wt/wt, n = 88): 19.12 ng/mL
- plasma concentration, range ([1]; genotype SULT1E1 wt/wt, n = 88): (4.03–107.10) ng/mL
- mean plasma concentration (±SD) ([1]; patients not receiving CYP2D6 inhibitors): 25.30 ± 19.39 ng/mL
- mean plasma concentration (±SD) ([1]; patients receiving CYP2D6 inhibitors concomitantly with TAM): 15.55 ± 17.77 ng/mL
Structure (SMILES): CC/C(=C(\c1ccc(O)cc1)c1ccc(OCCNC)cc1)c1ccccc1 [Endoxifen, N-desmethyl-4-hydroxy-tamoxifen]
- estrogen receptor affinity relative to TAM (estrogen receptor): 100 fold
- serum levels relative to 4OH-TAM [2]: 10 fold
